In US5334603A, “Composition and use of 3-phenyl-5-thiocyano-methylthio-1,3,4-thiadiazole-2(3h)thione” (The Dow Chemical Company, priority 1993, dated 1994):
Values after ≈ are worked out from the molar mass of the structure shown.

Legend:
Type in all cases: cell-based
[1] = system: Enterobacter aerogenes (Ea); assay: Minimum inhibitory concentration (MIC), nutrient agar; conditions: Klebsiella aerogenes, ATCC13048, ATCC 13048, 30° C., 48 hours
Protocol: (§1) The minimum inhibitory concentration (MIC) for the compound is determined for 9 bacteria, using nutrient agar; and 7 yeast and fungi, using malt yeast agar. A one percent solution of the test compound is prepared in a mixture of acetone and water. Nutrient agar is prepared at pH 6.8, representing a neutral medium, and at pH 8.2, representing an alkaline medium. The nutrient agars are prepared by adding 23 g of nutrient agar to one-liter of deionized water. In addition, the alkaline medium is prepared by adjusting a 0.04M solution of N-[tris-(hydroxymethyl)methyl]-glycine buffered deionized water with concentrated sodium hydroxide to a pH of […]. Malt yeast agar is prepared by adding 3 g yeast extract and 45 g malt agar per liter of deionized water. The specific agar is dispensed in 30 ml aliquots into 25×200 mm test tubes, capped and autoclaved for 15 minutes at 115° C. The test tubes containing the agar are cooled in a water bath until the temperature of the agar is 48 ° C. Then, an appropriate amount of the one percent solution of the test compound is added (except in the controls where no compound is added) to the respective test tubes so that the final concentrations are 500, 250, 100, 50, 25, 10, 5, 2.5, 1.0 and zero parts per million of the test compound in the agar, thus having a known concentration of test compound dispersed therein. The contents of the test tubes are then transferred to respective petri plates. After drying for 24 hours, the petri plates containing nutrient agar are inoculated with bacteria and those containing malt yeast agar are inoculated with yeast and fungi.
(§2) The inoculation with bacteria is accomplished by using the following procedure. Twenty-four hour-cultures of each of the bacteria are prepared by incubating the respective bacteria in tubes containing nutrient broth for 24 hours at 30° C. in a shaker. Dilutions of each of the 24 hour-cultures are made so that nine separate suspensions (one for each of the nine test bacteria) are made, each containing 10^8 colony forming units (CFU) per ml of suspension of a particular bacteria. Aliquots of 0.3 ml of each of the bacterial suspensions are used to fill the individual wells of Steer's Replicator. For each microbial suspension, 0.3 ml was used to fill three wells (i.e., three wells of 0.3 ml each) so that for the nine different bacteria, 27 wells are filled. The Steer's Replicator is then used to inoculate both the neutral and alkaline pH nutrient agar petri plates.
(§3) The inoculated petri plates are incubated at 30° C. for 48 hours and then read to determine if the test compound which is incorporated into the agar prevented growth of the respective bacteria.

[2] = system: Escherichia coli (Ec); assay: as above; conditions: 48 hours
Protocol: as §1, §2, §3

[3] = system: Staphylococcus aureus (Sa); assay: as above; conditions: 48 hours
Protocol: as §1, §2, §3

[4] = system: Klebsiella pneumoniae (Kp); assay: as above; conditions: 48 hours
Protocol: as §1, §2, §3

[5] = system: Bacillus subtilis (Bs); assay: as above; conditions: 48 hours
Protocol: as §1, §2, §3

[6] = system: Salmonella choleraesuis (Sc); assay: as above; conditions: Salmonella enterica, ATCC 10708 / CHOLERAESUIS, 48 hours
Protocol: as §1, §2, §3

[7] = system: Pseudomonas aeruginosa (Pa); assay: as above; conditions: 48 hours
Protocol: as §1, §2, §3

[8] = system: Pseudomonas aeruginosa (PRD-10); assay: as above; conditions: 48 hours
Protocol: as §1, §2, §3

[9] = system: Proteus vulgaris (Pv); assay: as above; conditions: 48 hours
Protocol: as §1, §2, §3

[10] = system: Aspergillus niger (An); assay: Minimum inhibitory concentration (MIC), malt yeast agar; conditions: pH 5.5; ATCC 16404; 30° C.; 48 hours for yeast, 72 hours for fungi
Protocol: as §1
(§4) The inoculation with the yeast and fungi is accomplished as follows. Cultures of yeast and fungi are incubated for seven days on malt yeast agar at 30° C. These cultures are used to prepare suspensions by the following procedure. A suspension of each organism is prepared by adding 10 ml of sterile saline and 10 microliters of octylphenoxy polyethoxy ethanol to the agar slant of yeast or fungi. The sterile saline/octylphenoxy polyethoxy ethanol solution is then agitated with a sterile swab to suspend the microorganism grown on the slant. Each resulting suspension is diluted into sterile saline (1 part suspension: 9 parts sterile saline). Aliquots of these dilutions are placed in individual wells of Steer's Replicator and petri plates inoculated as previously described. The petri plates are incubated at 30° C. and read after 48 hours for yeast and 72 hours for fungi.

[11] = system: Trichoderma viride (Tv); assay: as above; conditions: pH 5.5; ATCC 8678; 30° C.; 48 hours for yeast, 72 hours for fungi
Protocol: as §1, §4

[12] = system: Candida Albicans (Ca); assay: as above; conditions: pH 5.5; ATCC 10231; 30° C.; 48 hours for yeast, 72 hours for fungi
Protocol: as §1, §4

[13] = system: Aureobasidium pullulan (Ap); assay: as above; conditions: pH 5.5; ATCC 16622; 30° C.; 48 hours for yeast, 72 hours for fungi
Protocol: as §1, §4

[14] = system: Penicillium chrysogenum (Pc); assay: as above; conditions: pH 5.5; ATCC 9480; 30° C.; 48 hours for yeast, 72 hours for fungi
Protocol: as §1, §4

[15] = system: Fusarium oxysporum (Fo); assay: as above; conditions: pH 5.5; ATCC 48112; 30° C.; 48 hours for yeast, 72 hours for fungi
Protocol: as §1, §4

[16] = system: Saccharomyces cerevisiae (Sc); assay: as above; conditions: ATCC4105, pH 5.5, ATCC 4105, 30° C., 48 hours for yeast, 72 hours for fungi
Protocol: as §1, §4

Question: How did the MIC ([1]; pH 6.8) turn out when `N#CSCSc1nn(-c2ccccc2)c(=S)s1` [INVENTION, 3-phenyl-5-thiocyanomethylthio-1,3,4-thiadiazole-2(3H)thione] was run?
Answer: The MIC was 100 µg/mL (≈ 336 µM).

Question: And the MIC ([1]; pH 8.2)?
Answer: The MIC was over 500 µg/mL.

Question: What about the MIC ([2]; ATCC11229, pH 6.8, ATCC 11229, 30° C.) of the same molecule?
Answer: The MIC was 100 µg/mL (≈ 336 µM).

Question: What about the MIC ([2]; ATCC11229, pH 8.2, ATCC 11229, 30° C.) of the same molecule?
Answer: The MIC was 500 µg/mL (≈ 1680 µM).

Question: What about the MIC ([3]; ATCC6538, pH 6.8, ATCC 6538, 30° C.) of the same molecule?
Answer: Its MIC is 100 µg/mL (≈ 336 µM).

Question: And the MIC ([3]; ATCC6538, pH 8.2, ATCC 6538, 30° C.)?
Answer: The MIC was 250 µg/mL (≈ 840 µM).

Question: And the MIC ([4]; ATCC8308, pH 6.8, ATCC 8308, 30° C.)?
Answer: Its MIC is 100 µg/mL (≈ 336 µM).

Question: And the MIC ([4]; ATCC8308, pH 8.2, ATCC 8308, 30° C.)?
Answer: The MIC was 250 µg/mL (≈ 840 µM).

Question: And the MIC ([5]; ATCC8473, pH 6.8, ATCC 8473, 30° C.)?
Answer: Its MIC is 100 µg/mL (≈ 336 µM).

Question: What about the MIC ([5]; ATCC8473, pH 8.2, ATCC 8473, 30° C.) of the same molecule?
Answer: The MIC was under 10 µg/mL.

Question: What about the MIC ([6]; pH 6.8, 30° C.) of the same molecule?
Answer: Its MIC is 100 µg/mL (≈ 336 µM).

Question: What about the MIC ([6]; pH 8.2, 30° C.) of the same molecule?
Answer: Its MIC is 500 µg/mL (≈ 1680 µM).

Question: What about the MIC ([7]; ATCC10145, pH 6.8, ATCC 10145, 30° C.) of the same molecule?
Answer: Its MIC is 50 µg/mL (≈ 168 µM).

Question: And the MIC ([7]; ATCC10145, pH 8.2, ATCC 10145, 30° C.)?
Answer: The MIC was 50 µg/mL (≈ 168 µM).

Question: And the MIC ([8]; ATCC15442, pH 6.8, ATCC 15442, 30° C.)?
Answer: The MIC was 50 µg/mL (≈ 168 µM).

Question: What about the MIC ([8]; ATCC15442, pH 8.2, ATCC 15442, 30° C.) of the same molecule?
Answer: The MIC was 100 µg/mL (≈ 336 µM).

Question: What about the MIC ([9]; ATCC881, pH 6.8, ATCC 881, 30° C.) of the same molecule?
Answer: Its MIC is 100 µg/mL (≈ 336 µM).

Question: What about the MIC ([9]; ATCC881, pH 8.2, ATCC 881, 30° C.) of the same molecule?
Answer: Its MIC is 250 µg/mL (≈ 840 µM).

Question: What about the MIC [10] of the same molecule?
Answer: Its MIC is 5 µg/mL (≈ 16.8 µM).

Question: And the MIC [11]?
Answer: Its MIC is 25 µg/mL (≈ 84 µM).

Question: What about the MIC [12] of the same molecule?
Answer: Its MIC is 25 µg/mL (≈ 84 µM).

Question: What about the MIC [13] of the same molecule?
Answer: Its MIC is 2.5 µg/mL (≈ 8.4 µM).

Question: What about the MIC [14] of the same molecule?
Answer: Its MIC is 2.5 µg/mL (≈ 8.4 µM).

Question: What about the MIC [15] of the same molecule?
Answer: Its MIC is 10 µg/mL (≈ 33.6 µM).

Question: And the MIC [16]?
Answer: Its MIC is 5 µg/mL (≈ 16.8 µM).
